Data taken from patent US7985751B2, “Piperazine derivatives” (M's Science Corporation, priority 2005, dated 2011).
Counter-ions that a name gives are not always drawn.

Key:
σ1 receptors = biological target: T1, σ1 receptors (Homo sapiens, UniProt Q99720); assay: σ1 receptor binding assay ((+)-[3H]pentazocine displacement, HEK-293 cell membranes); settings: for affinity for sigma receptors, in particular sigma-1 receptors: result in words
T1 construct: incubating 50 μg of HEK-293 cell membranes with 10 nM (+)-[^3H]-pentazocine; endogenous in cells; host or cells: HEK-293
Procedure: (§1) Sigma 1 (σ1) and sigma 2 (σ2) receptor binding assays are carried out in membranes from HEK-293 (Human Embryonic Kidney) cells.
(§2) Confluent HEK-293 cells are harvested in PBS/5 mM EDTA. They are centrifuged at 2000 rpm for 5 min and then washed two times in PBS. Cells are homogenized in 20 mM Tris-HCL (pH=7.5) containing 5 mM EDTA, 0.5 mM PMSF and 0.5 μg/ml leupeptin using a Dounce homogenizer and sonicated for 5 minutes.
Nuclear debris and intact cells are removed by centrifugation at 3000 rpm for 10 minutes at 4° C. The supernatant is centrifuged at 12000 rpm for 30 minutes and the resulting pellet is resuspended in 25 mM Tris-HCL (pH=7.5), 25 mM Mg2Cl, 10% sucrose containing 0.5 mM PMSF, 2 mM AEBSF, 1 mM EDTA, 130 μM bestatin, 14 μM E-64, 1 μM leupeptin, and 0.3 mM aprotinin.
Proteins are determined using the Bio Rad Protein Assay Dye Reagent and the membranes are aliquoted and frozen at −80° C.
The binding assays are performed in 96-well plates.
σ1 receptors are labeled using the σ1 selective probe (+)-[^3H] Pentazocine (Bowen W D et al, Mol Neuropharmacol 3, 117-126, 1993).
Total binding is determined by incubating 50 μg of HEK-293 cell membranes with 10 nM (+)-[^3H]-pentazocine (Perkin-Elmer, 35 Ci/mmol) and assay buffer (50 mM Tris-HCl, pH=8.3) in a total volume of 200 μl. Non specific binding is determined in the presence of 10 μM unlabeled pentazocine. For competition experiments, 50 μl of displacing compound is added at 8 different concentrations. Incubations are carried out for 120 min at 37° C. Assays are terminated by dilution with ice-cold 10 mM Tris-HCl, pH=8.3 and vacuum filtration through glass fibers using a Skatron cell harvester from Molecular Devices. The filters are washed three times and the membrane-bound radioactivity is determined in a Microbeta scintillation counter.
Filters are soaked in 0.5% polyethyleneimine for 1 hour before use.
(§3) Specific binding is determined by subtraction of non specific binding from total binding. […]

σ2 receptors = biological target: T2, σ2 receptors (Homo sapiens, UniProt Q5BJF2); assay: σ2 receptor binding assay ([3H]DTG displacement with σ1 masked by pentazocine, HEK-293 cell membranes); settings: σ1 versus σ2 binding, result in words
T2 construct: incubating 50 μg of HEK-293 cell membranes with 10 nM [^3H]-DTG; endogenous in cells; host or cells: HEK-293
Procedure: as §1, §2
Nuclear debris and intact cells are removed by centrifugation at 3000 rpm for 10 minutes at 4° C. […]
Proteins are determined using the Bio Rad Protein Assay Dye Reagent and the membranes are aliquoted and frozen at −80° C. […]
Total binding is determined by incubating 50 μg of HEK-293 cell membranes with 10 nM [^3H]-DTG (Perkin-Elmer, 58 Ci/mmol) in the presence of 10 μM pentazocine and assay buffer (50 mM Tris-HCl, pH=8.3) in a total volume of 200 μl. Non specific binding is determined in the presence of 10 μM unlabeled DTG. […] The filters are washed three times and the membrane-bound radioactivity is determined in a Microbeta scintillation counter. […]
as §3

[1] = tested on: sigma receptor-mediated neck dystonia in rats; settings: microinjection, Nakazawa M et al 1999; cited from earlier work

T1 sequence (Q99720 whole entry): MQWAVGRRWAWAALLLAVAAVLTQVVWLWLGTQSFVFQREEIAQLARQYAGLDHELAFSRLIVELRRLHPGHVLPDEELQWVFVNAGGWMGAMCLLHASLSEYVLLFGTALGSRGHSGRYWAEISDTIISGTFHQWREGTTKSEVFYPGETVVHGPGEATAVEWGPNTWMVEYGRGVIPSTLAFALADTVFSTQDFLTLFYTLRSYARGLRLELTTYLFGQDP
T2 sequence (Q5BJF2 whole entry): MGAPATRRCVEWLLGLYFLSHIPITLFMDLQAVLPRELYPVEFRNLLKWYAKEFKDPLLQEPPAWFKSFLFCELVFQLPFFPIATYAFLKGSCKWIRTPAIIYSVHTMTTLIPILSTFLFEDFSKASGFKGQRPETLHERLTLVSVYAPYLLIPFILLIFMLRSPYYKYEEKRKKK

| SMILES | IC50 (σ1 receptors) | affinity for sigma receptors, in particular sigma-1 receptors (σ1 receptors) | selectivity for σ1 receptor over σ2 receptor (σ2 receptors) | induction of neck dystonia [1] |
| --- | --- | --- | --- | --- |
| COc1cc(CCN2CCN(CCCc3ccccc3)CC2)cc(OC)c1OC.Cl [1-[2-(3,4,5-trimethoxyphenyl)ethyl]-4-(3-phenylpropyl)piperazine hydrochloride] | < 300 nM | high affinity | highly selective |  |
| Cc1ccccc1NC(=N)Nc1ccccc1C [DTG, 1,3-di-2-tolyl-guanidine] |  |  |  | induced neck dystonia |
| Fc1ccccc1CCN1CCN(CCCc2ccccc2)CC1 [Example 4, 1-[2-(2-Fluorophenyl)ethyl]-4-(3-phenylpropyl)piperazine dihydrochloride] |  | especially good | especially good |  |
| COc1ccc(CCN2CCN(CCCc3ccccc3)CC2)cc1OC [SA-4503, 1-[2-(3,4-dimethoxyphenyl)ethyl]-4-(3-phenylpropyl)piperazine] |  |  |  | no effect |
